As a reminder, the MIC50 is the lowest concentration that inhibits either 50% of growth or 50% of the strains tested, depending on the study.

Holding throughout (type): functional
Assay [1] deals with Nakaseomyces glabratus. The experiment in a line: Antimicrobial activity against Candida glabrata by CLSI M27-A2 broth microdilution method.
Assay [2] deals with Candida parapsilosis. In words: Antimicrobial activity against Candida parapsilosis ATCC 22019 by EUCAST broth microdilution method. To be noted: Lodderomyces parapsilosis.
Assay [3] deals with Candida albicans. In words: Antimicrobial activity against Candida albicans by EUCAST broth microdilution method. A general note: Broth dilution looks for growth in wells or tubes with falling amounts of substance.
Assay [4] deals with Pichia kudriavzevii. The experiment in a line: Antimicrobial activity against Candida krusei ATCC 6258 by CLSI M27-A2 broth microdilution method.
Assay [5] relates to Candida albicans. In words: Antimicrobial activity against Candida albicans by CLSI M27-A2 broth microdilution method.
Assay [6] relates to Pichia kudriavzevii. In words: Antimicrobial activity against Candida krusei ATCC 6258 by EUCAST broth microdilution method.
Assay [7] relates to Nakaseomyces glabratus. The experiment in a line: Antimicrobial activity against Candida glabrata by EUCAST broth microdilution method.
In assay [8] the test system is Candida parapsilosis. The experiment in a line: Antimicrobial activity against Candida parapsilosis ATCC 22019 by CLSI M27-A2 broth microdilution method. To be noted: Lodderomyces parapsilosis.

In brackets after ≈: the same amount, converted by molar mass.

In the case of `Clc1ccc(C(Cn2ccnc2)OCc2ccc(Sc3ccccc3)cc2)c(Cl)c1` (configuration not stated) [FENTICONAZOLE], the MIC50 in the assay with Nakaseomyces glabratus [1] is 0.03 µg/mL (≈ 0.0659 µM); in the assay with Candida parapsilosis [2], 0.03 µg/mL (≈ 0.0659 µM); with Candida albicans [3], 0.03 µg/mL (≈ 0.0659 µM); against Pichia kudriavzevii [4], 0.06 µg/mL (≈ 0.132 µM); with Candida albicans [5] it was 0.03 µg/mL (≈ 0.0659 µM); in the assay on Pichia kudriavzevii [6], 0.06 µg/mL (≈ 0.132 µM). For the same molecule, the MIC50 in the assay with Nakaseomyces glabratus [7] and in the assay on Candida parapsilosis [8] was 0.03 µg/mL (≈ 0.0659 µM) throughout.

On to `OC(Cn1cncn1)(Cn1cncn1)c1ccc(F)cc1F` [FLUCONAZOLE], for which the MIC50 worked out at 2 µg/mL (≈ 6.53 µM) with Nakaseomyces glabratus [1]; 0.5 µg/mL (≈ 1.63 µM) with Candida parapsilosis [2]; 0.12 µg/mL (≈ 0.392 µM) against Candida albicans [3]; 16 µg/mL (≈ 52.2 µM) in the assay on Pichia kudriavzevii [4]; 0.12 µg/mL (≈ 0.392 µM) in the assay with Candida albicans [5]; 32 µg/mL (≈ 104 µM) with Pichia kudriavzevii [6]. In addition, the MIC50 against Nakaseomyces glabratus [7] and against Candida parapsilosis [8] was 2 µg/mL (≈ 6.53 µM) throughout.

For the molecule `CCC(C)n1ncn(-c2ccc(N3CCN(c4ccc(OCC5COC(Cn6cncn6)(c6ccc(Cl)cc6Cl)O5)cc4)CC3)cc2)c1=O` (configuration not stated) [ITRACONAZOLE], the MIC50 in the assay with Nakaseomyces glabratus [1] stood at 0.03 µg/mL (≈ 0.0425 µM); against Candida parapsilosis [2], 0.06 µg/mL (≈ 0.085 µM); in the assay on Candida albicans [3], 0.03 µg/mL (≈ 0.0425 µM); against Pichia kudriavzevii [4] it was 0.12 µg/mL (≈ 0.17 µM); in the assay with Candida albicans [5], 0.03 µg/mL (≈ 0.0425 µM); against Pichia kudriavzevii [6], 0.03 µg/mL (≈ 0.0425 µM). The figures for the MIC50 in the assay on Nakaseomyces glabratus [7] and against Candida parapsilosis [8] were 0.03 µg/mL (≈ 0.0425 µM) and 0.06 µg/mL (≈ 0.085 µM), respectively.

For `CC(=O)N1CCN(c2ccc(OCC3COC(Cn4ccnc4)(c4ccc(Cl)cc4Cl)O3)cc2)CC1` (configuration not stated) [KETOCONAZOLE], the MIC50 was 0.5 µg/mL (≈ 0.941 µM) with Nakaseomyces glabratus [1]; 0.12 µg/mL (≈ 0.226 µM) in the assay with Candida parapsilosis [2]; 0.12 µg/mL (≈ 0.226 µM) in the assay on Candida albicans [3]; 0.25 µg/mL (≈ 0.47 µM) against Pichia kudriavzevii [4]; 0.12 µg/mL (≈ 0.226 µM) in the assay with Candida albicans [5]; 0.12 µg/mL (≈ 0.226 µM) against Pichia kudriavzevii [6]. The MIC50 in the assay on Nakaseomyces glabratus [7] was 2 µg/mL (≈ 3.76 µM); with Candida parapsilosis [8], 0.12 µg/mL (≈ 0.226 µM).

The values are drawn from ChEMBL document CHEMBL1649162, “Fenticonazole activity measured by the methods of the European Committee on Antimicrobial Susceptibility Testing and CLSI against 260 Candida vulvovaginitis isolates from two European regions and annotations on the prevalent genotypes” (2009).
